Here are results for seven compounds from EP1138682A1, “Novel water soluble c-ring analogues of 20 (s)-camptothecin” (priority 1996, dated 1997).

Series [1] deals with NCI's 60 human tumor cell line. As to the kind of experiment: NCI 60 human tumor cell line assay (sulforhodamine B). It is filed as cell-based. Particulars: read-out: IC50 (the source's name).
Procedure: Each test compound was screened against a battery of 60 human cell lines obtained from eight organs. In a typical procedure, the cell suspensions that were diluted according to the particular cell type and the expected target cell density (5000-40,000 cells per well based on cell growth characteristics) were added into 96-well microtiter plates. Inoculates were allowed a preincubation period of 24h at 37°C. for stabilization. Dilutions at twice the intended test concentrations were added at time zero in 100-µl aliquots to microtiter plate wells. Usually test compounds were evaluated at five 10-fold dilutions. The highest well concentration used in the test is 10^-4M. The cells are then incubated in the presence of drug (the test compound) for further 48h in 5% CO2 atmosphere and 100% humidity. At the end of this time, the adherent cells are fixed to the plate by means of trichloroacetic acid, and after a number of washes, the cell layer is treated with the protein stain Sulforhodamine B. The optical density which is proportional to protein mass, is then read by automated spectrophotometric plate readers at a wavelength of 515 nm. Readings are transferred to a microcomputer and final reports are generated using especially developed software.
For a further series, the target named is Human Serum Albumin (Homo sapiens, UniProt P02768). To be noted: in the presence of HSA at 37°C; comparison in words; cited from earlier work.
Setting [2] is: mean value of GI50 (50% cell growth inhibition) over NCI's 60 human tumor cell lines, 48h incubation with drug.

Like-named read-outs stand apart in the source and are kept apart here.

Sequence of Human Serum Albumin (P02768 25-609): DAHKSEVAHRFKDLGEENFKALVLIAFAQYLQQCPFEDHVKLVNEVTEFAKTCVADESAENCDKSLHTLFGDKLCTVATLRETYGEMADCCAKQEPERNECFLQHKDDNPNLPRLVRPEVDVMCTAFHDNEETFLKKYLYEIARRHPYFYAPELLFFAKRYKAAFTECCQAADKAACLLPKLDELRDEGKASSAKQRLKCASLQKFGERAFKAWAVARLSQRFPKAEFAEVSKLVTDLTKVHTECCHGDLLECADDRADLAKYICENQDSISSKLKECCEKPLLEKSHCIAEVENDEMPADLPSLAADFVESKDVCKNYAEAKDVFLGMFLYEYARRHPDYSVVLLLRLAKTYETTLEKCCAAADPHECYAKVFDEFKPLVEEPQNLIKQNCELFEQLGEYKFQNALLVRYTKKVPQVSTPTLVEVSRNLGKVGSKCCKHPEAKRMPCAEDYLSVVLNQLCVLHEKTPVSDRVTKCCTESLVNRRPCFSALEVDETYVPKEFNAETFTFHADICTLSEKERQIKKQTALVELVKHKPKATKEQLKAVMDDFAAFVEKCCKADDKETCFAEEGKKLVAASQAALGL

In the case of “5-(2'-aminoethoxy)-7-ethylcamptothecin [Example 37]”, in series [1] (setting [2]), the GI50 was 18.6 µM.
For the compound `CCOC1c2cc3c(O)cccc3nc2-c2cc3c(c(=O)n21)COC(=O)[C@]3(O)CC` (stereo partly shown) [Example 11, 5-Ethoxy-9-hydroxycamptothecin], in series [1] (setting [2]), the GI50 was found to be 6.68 µM.
The same measure, in the same setting: under `CC[C@@]1(O)C(=O)OCc2c1cc1n(c2=O)C(OCC(F)(F)F)c2cc3cc(O)ccc3nc2-1` (stereo partly shown) [Example 27, 10-Hydroxy-5-trifluoroethoxycamptothecin] stands 0.38 µM; under `CC[C@@]1(O)C(=O)OCc2c1cc1n(c2=O)C(OCCOC)c2cc3ccccc3nc2-1` (stereo partly shown) [Example 43, 5-(2'-methoxyethoxy)camptothecin], 2.23 µM.
As to `CC[C@@]1(O)C(=O)OCc2c1cc1n(c2=O)C(OCCO)c2cc3c([N+](=O)[O-])cccc3nc2-1` (stereo partly shown) [9-Nitro-5-(2'-hydroxyethoxy)camptothecin], in series [1] (Homo sapiens, 48 h), the GI50 was found to be 7.94 µM.
Consider “5-(2'-N-pyrrolidinoethoxy)-7-ethylcamptothecin [Example 39]”, for which the GI50 in series [1] (setting [2]) amounted to 18.6 µM.
Turning to `CCc1c2c(nc3ccc(O)cc13)-c1cc3c(c(=O)n1C2)COC(=O)[C@]3(O)CC` [SN-38, 7-ethyl-10-hydroxycamptothecin], the “percentage (%) of lactone form at equilibrium” value on Human Serum Albumin is “higher percentage (%) of lactone form at equilibrium than 20(S) camptothecin of the formula 3 and 9-aminocamptothecin of the formula 6”.
